Assay results from ChEMBL document CHEMBL1126516, “Synthesis, biological activity and electrostatic properties of 3-[2-(dimethylamino)ethyl]-5-[(3-amino-1,2,4-thiadiazol-5-yl)methyl]-1H-indole, a novel 5-HT1D receptor agonist” (Bioorg Med Chem Lett, 1993).

Species on record: Oryctolagus cuniculus
Assay: Compound was tested for the contraction of New Zealand white rabbit saphenous vein
Assay type: functional

Compound | EC50
CNS(=O)(=O)Cc1ccc2[nH]cc(CCN(C)C)c2c1 | 631 nM
CN(C)CCc1c[nH]c2ccc(Cc3nc(N)ns3)cc12 | 10 nM
CN(C)CCc1c[nH]c2ccc(Cc3nc(N)no3)cc12 | 501 nM
NCCc1c[nH]c2ccc(O)cc12 [SEROTONIN] | 158 nM
